Experimental data from patent publication EP4603105A1, “PHARMACEUTICAL COMPOSITION CONTAINING CYCLIC COMPOUND HAVING SELECTIVE KRAS INHIBITORY EFFECT AGAINST HRAS AND NRAS” (CHUGAI SEIYAKU KABUSHIKI KAISHA, priority 2022, dated 2024).

What was measured:
[1] = molecular target: HRAS wild-type protein (Homo sapiens, UniProt P01112); assay: Binding to HRAS by surface plasmon resonance (SPR), KD and KD ratio to KRAS; details: ratio of KD for HRAS wild-type protein to KD for KRAS
Outline: (§1)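 Captured GDP-RAS (~100–300 RU) was exposed to increasing compound concentrations, 75 s per step, in running buffer with 10 µM GDP, 10 mM MgCl2 and 4% DMSO at pH 7.4.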

[2] = molecular target: GDP-bound KRAS wild-type protein (Homo sapiens, UniProt P01116); assay: Binding to KRAS by surface plasmon resonance (SPR), dissociation constant KD; details: Single Cycle Kinetics
Sequence of GDP-bound KRAS wild-type protein (P01116 1-188 isoform P01116-2): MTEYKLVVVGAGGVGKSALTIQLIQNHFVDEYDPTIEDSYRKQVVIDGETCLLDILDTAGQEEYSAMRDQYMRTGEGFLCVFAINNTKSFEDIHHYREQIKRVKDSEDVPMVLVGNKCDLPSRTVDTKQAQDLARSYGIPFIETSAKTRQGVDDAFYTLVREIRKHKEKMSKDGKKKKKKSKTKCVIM
Outline: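 Recombinant RAS proteins bearing a biotinylated Avi tag and loaded with GDP served as the captured ligand, recaptured fresh every cycle. Binding responses were referenced to an uncoated surface and a buffer-only blank cycle. Dissociation constants were obtained by 1:1 model fitting at 30°C.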

[3] = molecular target: GDP-bound NRAS wild-type protein (Homo sapiens, UniProt P01111); assay: Binding to NRAS by surface plasmon resonance (SPR), KD and KD ratio to KRAS; details: ratio of KD for GDP-bound NRAS wild-type protein to KD for KRAS
Sequence of GDP-bound NRAS wild-type protein (P01111 whole entry): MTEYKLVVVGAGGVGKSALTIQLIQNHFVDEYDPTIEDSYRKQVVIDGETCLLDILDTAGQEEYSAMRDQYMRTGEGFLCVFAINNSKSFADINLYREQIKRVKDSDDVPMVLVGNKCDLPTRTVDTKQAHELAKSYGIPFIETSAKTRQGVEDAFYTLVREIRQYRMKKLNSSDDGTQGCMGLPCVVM
Outline: as §1

[4] = test system: human lung cancer strain NCI-H441; assay: NCI-H441 cell proliferation inhibitory activity (CellTiter-Glo, 4 days); assay type: cell-based; details: NCI-H441 cells, 4 days, read-out: NCl-H441 IC50
Outline: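 Step one: dispense the test compound in serial DMSO dilutions. Step three: add the reagent and measure […].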

Sequence of HRAS wild-type protein (P01112 whole entry): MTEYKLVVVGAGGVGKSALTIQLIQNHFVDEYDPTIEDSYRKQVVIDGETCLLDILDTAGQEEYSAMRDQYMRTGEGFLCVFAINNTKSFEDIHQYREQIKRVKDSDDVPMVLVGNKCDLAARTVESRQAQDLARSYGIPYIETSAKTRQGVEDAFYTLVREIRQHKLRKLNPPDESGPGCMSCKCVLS

| Structure (SMILES) | HRAS /KRAS [1] | Kd [2] [nM] | NRAS /KRAS [3] | IC50 [4] [nM] |
| --- | --- | --- | --- | --- |
| CCC[C@H]1C(=O)N[C@@H](C2CCCC2)C(=O)N(C)CC(=O)N(C)[C@H]2C/C=C\CCN(C2=O)[C@@H](Cc2ccc(C(F)F)cc2)C(=O)N(C)CC(=O)N[C@@H](CCc2cc(F)c(C(F)(F)F)c(OC)c2)C(=O)N2C[C@H](OC(C)C)C[C@H]2C(=O)N(C)C2(CCC2)C(=O)N(C)[C@@H](C(CC)CC)C(=O)N(C)[C@H](C(=O)N(C)C)CC(=O)N1C [PP3499] | B (a compound having 3 or more and less than 10 is denoted as B) | 0.083 | A (a compound having 10 or more and less than 20 is denoted as A) | 6.2 |
| CCc1cc(CC[C@@H]2NC(=O)CN(C)C(=O)[C@H](Cc3ccc(C(F)F)cc3)N3CC/C=C\C[C@@H](C3=O)N(C)C(=O)CN(C)C(=O)[C@H]([C@@H](C)OC)NC(=O)[C@H](CC)N(C)C(=O)C[C@@H](C(=O)N(C)C)N(C)C(=O)[C@H](C(CC)CC)N(C)C(=O)C3(CCC3)N(C)C(=O)[C@@H]3C[C@@H](OC(C)C)CN3C2=O)ccc1C(F)(F)F [PP3500] | A (a compound having 10 or more and less than 20 is denoted as A) | 0.31 | A (a compound having 10 or more and less than 20 is denoted as A) | 12.2 |
| CCCOC[C@H]1C(=O)N[C@@H](C2CCCC2)C(=O)N(CCC)CC(=O)N(C)[C@H]2C/C=C\CCN(C2=O)[C@@H](Cc2ccc(C)cc2)C(=O)N(C)CC(=O)N[C@@H](CCc2ccc(Cl)c(C(F)(F)F)c2)C(=O)N2C[C@H](OC(C)C)C[C@H]2C(=O)N(C)C2(CCC2)C(=O)N(C)[C@@H](C(CC)CC)C(=O)N(C)[C@H](C(=O)N(C)C)CC(=O)N1C [PP3501] | A (a compound having 10 or more and less than 20 is denoted as A) | 1.1 | AA (a compound having 20 or more is denoted as AA) | 102 |
| CCCOC[C@H]1C(=O)N[C@@H]([C@@H](C)CC)C(=O)N(CCC)CC(=O)N(C)[C@H]2C/C=C\CCN(C2=O)[C@@H](Cc2ccc(C(F)F)cc2)C(=O)N(C)CC(=O)N[C@@H](CCc2cc(F)c(C(F)(F)F)c(F)c2)C(=O)N2C[C@H](OC3CCC3)C[C@H]2C(=O)N(C)C2(CCC2)C(=O)N(C)[C@@H](C(CC)CC)C(=O)N(C)[C@H](C(=O)N(C)C)CC(=O)N1C [PP3502] | A (a compound having 10 or more and less than 20 is denoted as A) | 0.5 | AA (a compound having 20 or more is denoted as AA) | 22.4 |
| C#CCN1CC(=O)N(C)[C@H]2C/C=C\CCN(C2=O)[C@@H](Cc2ccc(C(F)F)cc2)C(=O)N(C)CC(=O)N[C@@H](CCc2cc(F)c(C(F)(F)F)c(F)c2)C(=O)N2C[C@H](OCC)C[C@H]2C(=O)N(C)C2(CCC2)C(=O)N(C)[C@@H](C(CC)CC)C(=O)N(C)[C@H](C(=O)N(C)C)CC(=O)N(C)[C@@H](COCCC)C(=O)N[C@@H]([C@@H](C)OC)C1=O [PP3506] | A (a compound having 10 or more and less than 20 is denoted as A) | 0.73 | A (a compound having 10 or more and less than 20 is denoted as A) | 12.5 |
| CCCOC[C@H]1C(=O)N[C@@H](C2CCCC2)C(=O)N(CCC)CC(=O)N(C)[C@H]2C/C=C\CCN(C2=O)[C@@H](Cc2ccc(C(F)F)cc2)C(=O)N(C)CC(=O)N[C@@H](CCc2cc(F)c(C(F)(F)F)c(F)c2)C(=O)N2C[C@H](OCC)C[C@H]2C(=O)N(C)C2(CCC2)C(=O)N(C)[C@@H](C(CC)CC)C(=O)N(C)[C@H](C(=O)N(C)C)CC(=O)N1C [PP3507] | A (a compound having 10 or more and less than 20 is denoted as A) | 0.9 | A (a compound having 10 or more and less than 20 is denoted as A) | 29.8 |
| CCC(CC)[C@H]1C(=O)N(C)[C@H](C(=O)N(C)C)CC(=O)N(C)[C@@H](CC2CC2)C(=O)N[C@@H]([C@H](C)CC)C(=O)NCC(=O)N(C)[C@H]2C/C=C\CCN(C2=O)[C@@H](Cc2ccc(C(F)F)cc2)C(=O)N(C)CC(=O)N[C@@H](CCc2ccc(Cl)c(C(F)(F)F)c2)C(=O)N2C[C@H](OC(C)C)C[C@H]2C(=O)N(C)C2(CC(C)(C)C2)C(=O)N1C [PP3508] | A (a compound having 10 or more and less than 20 is denoted as A) | 5.4 | A (a compound having 10 or more and less than 20 is denoted as A) | 57.2 |
| CCC[C@H]1C(=O)N[C@@H]([C@@H](C)CC)C(=O)N2CCC[C@H]2C(=O)N(C)[C@H]2C/C(F)=C\CCN(C2=O)[C@@H](Cc2ccc(C(F)(F)F)cc2)C(=O)N(C)CC(=O)N[C@@H](CCc2ccc(C(F)(F)F)c(OC)c2)C(=O)N2C[C@H](OCC)C[C@H]2C(=O)N(C)C2(CCC2)C(=O)N(C)[C@@H](C2CCCC2)C(=O)N(C)[C@H](C(=O)N(C)C)CC(=O)N1C [PP3509] | B (a compound having 3 or more and less than 10 is denoted as B) | 0.41 | B (a compound having 3 or more and less than 10 is denoted as B) | 9.4 |
| CCO[C@@H]1C[C@H]2C(=O)NC3(CCCC3)C(=O)N(C)[C@@H](C3CCCC3)C(=O)N(C)[C@H](C(=O)N(C)C)CC(=O)N(C)[C@@H](CC(C)C)C(=O)N[C@@H]([C@@H](C)CC)C(=O)N(C)CC(=O)N(C)[C@H]3C/C(F)=C\CCN(C3=O)[C@@H](Cc3ccc(C)cc3)C(=O)N(C)CC(=O)N[C@@H](CCc3cc(F)c(C(F)(F)F)c(F)c3)C(=O)N2C1 [PP3511] | B (a compound having 3 or more and less than 10 is denoted as B) | 0.27 | B (a compound having 3 or more and less than 10 is denoted as B) | 12.3 |
| CCO[C@@H]1C[C@H]2C(=O)NC3(CCCC3)C(=O)N(C)[C@@H](C3CCCC3)C(=O)N(C)[C@H](C(=O)N(C)C)CC(=O)N(C)[C@@H](CC(C)C)C(=O)N[C@@H]([C@@H](C)CC)C(=O)N(C)CC(=O)N(C)[C@H]3C/C(F)=C\CCN(C3=O)[C@@H](Cc3ccc(C)cc3)C(=O)N(C)CC(=O)N[C@@H](CCc3ccc(C(F)(F)F)c(OC)c3)C(=O)N2C1 [PP3512] | B (a compound having 3 or more and less than 10 is denoted as B) | 0.25 | B (a compound having 3 or more and less than 10 is denoted as B) | 8.8 |
| CCO[C@@H]1C[C@H]2C(=O)NC3(CC(C)(C)C3)C(=O)N(C)[C@@H](C3CCCC3)C(=O)N(C)[C@H](C(=O)N(C)C)CC(=O)N(C)[C@@H](CC(C)C)C(=O)N[C@@H]([C@@H](C)CC)C(=O)N(C)CC(=O)N(C)[C@H]3C/C(F)=C\CCN(C3=O)[C@@H](Cc3ccc(C)cc3)C(=O)N(C)CC(=O)N[C@@H](CCc3cc(F)c(C(F)(F)F)c(F)c3)C(=O)N2C1 [PP3513] | B (a compound having 3 or more and less than 10 is denoted as B) | 0.14 | B (a compound having 3 or more and less than 10 is denoted as B) | 8.6 |
| CCO[C@@H]1C[C@H]2C(=O)NC3(CCC3)C(=O)N(C)[C@@H](C3CCCC3)C(=O)N(C)[C@H](C(=O)N(C)C)CC(=O)N(C)[C@@H](CC(C)C)C(=O)N[C@@H]([C@@H](C)CC)C(=O)N(C)CC(=O)N(C)[C@H]3C/C(F)=C\CCN(C3=O)[C@@H](Cc3ccc(C(F)(F)F)cc3)C(=O)N(C)CC(=O)N[C@@H](CCc3cc(F)c(C(F)(F)F)c(F)c3)C(=O)N2C1 [PP3514] | B (a compound having 3 or more and less than 10 is denoted as B) | 0.17 | B (a compound having 3 or more and less than 10 is denoted as B) | 12.2 |
| CCO[C@@H]1C[C@H]2C(=O)NC3(CCC3)C(=O)N(C)[C@@H](C3CCCC3)C(=O)N(C)[C@H](C(=O)N(C)C)CC(=O)N(C)[C@@H](CC(C)C)C(=O)N[C@@H]([C@@H](C)CC)C(=O)N(C)CC(=O)N(C)[C@H]3C/C(F)=C\CCN(C3=O)[C@@H](Cc3ccc(C)cc3)C(=O)N(C)CC(=O)N[C@@H](CCc3cc(F)c(C(F)(F)F)c(F)c3)C(=O)N2C1 [PP3515] | B (a compound having 3 or more and less than 10 is denoted as B) | 0.28 | B (a compound having 3 or more and less than 10 is denoted as B) | 17 |
| CCO[C@@H]1C[C@H]2C(=O)NC3(CCCC3)C(=O)N(C)[C@@H](C3CCC3)C(=O)N(C)[C@H](C(=O)N(C)C)CC(=O)N(C)[C@@H](CC(C)C)C(=O)N[C@@H]([C@@H](C)CC)C(=O)N(C)CC(=O)N(C)[C@H]3C/C(F)=C\CCN(C3=O)[C@@H](Cc3ccc(C(F)(F)F)cc3)C(=O)N(C)CC(=O)N[C@@H](CCc3cc(F)c(C(F)(F)F)c(F)c3)C(=O)N2C1 [PP3516] | B (a compound having 3 or more and less than 10 is denoted as B) | 1.4 | B (a compound having 3 or more and less than 10 is denoted as B) | 55.4 |
